The text below walks through data of PubChem BioAssay AID330 (DTP/NCI, 2004).

Values joined by “and” are separate entries in the source; they are usually repeats but may differ in a detail not shown here. Identical values can stand only once. Toxic doses and inconclusive results are not listed.

In the test the test system is P388 leukemia ip, CD2F1 mice, survival T/C. As to the kind of experiment: NCI In Vivo Anticancer Drug Screen. Data for tumor model P388 Leukemia (intraperitoneal) in CD2F1 (CDF1) mice. Conditions: endpoint: median survival time, higher = longer survival. The essentials:
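Mice carrying the transplanted tumor received test compound or vehicle. Survival was recorded in each group, and the value is the treated-group measurement divided by that of the vehicle-treated control group.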

Regarding `CC(=O)[C@]1(O)Cc2c(O)c3c(c(O)c2[C@@H](OC2CC(N)C(O)C(C)O2)C1)C(=O)c1c(O)cccc1C3=O` (some centres undefined), the T/C reads like this: (dose: 0.05 mg/kg/injection, schedule: Q01DX009 (ip), vehicle: saline) 150 % of control; (dose: 0.08 mg/kg/injection, schedule: Q01DX009 (ip), vehicle: saline) 159 % of control; (dose: 0.08 mg/kg/injection, schedule: Q04DX003 (ip), vehicle: water) 100 % of control and 97 % of control; (dose: 0.1 mg/kg/injection, schedule: Q04DX003 (ip), vehicle: saline) 123 % of control; (dose: 0.14 mg/kg/injection, schedule: Q01DX009 (ip), vehicle: saline) 177 % of control; (dose: 0.16 mg/kg/injection, schedule: Q04DX003 (ip), vehicle: water) 109 % of control and 87 % of control. Also, the T/C was 119 % of control and 94 % of control (dose: 0.25 mg/kg/injection, schedule: Q04DX003 (ip), vehicle: water); 154 % of control (dose: 0.3 mg/kg/injection, schedule: Q04DX003 (ip), vehicle: saline); 159 % of control (dose: 0.32 mg/kg/injection, schedule: Q04DX003 (ip), vehicle: saline); 160 % of control and 173 % of control (dose: 0.36 mg/kg/injection, schedule: Q04DX003 (ip), vehicle: saline); 161 % of control (dose: 0.36 mg/kg/injection, schedule: Q04DX003 (ip), vehicle: water); 159 % of control (dose: 0.39 mg/kg/injection, schedule: Q01DX001 (ip), vehicle: saline). The T/C reads like this: (dose: 0.39 mg/kg/injection, schedule: Q01DX009 (ip), vehicle: saline) 100 % of control; (dose: 0.39 mg/kg/injection, schedule: Q04DX003 (ip), vehicle: saline) 163 % of control; (dose: 0.4 mg/kg/injection, schedule: Q04DX003 (ip), vehicle: saline) 154 % of control; (dose: 0.43 mg/kg/injection, schedule: Q01DX001 (ip), vehicle: saline) 152 % of control and 160 % of control; (dose: 0.43 mg/kg/injection, schedule: Q04DX003 (ip), vehicle: saline) 165 % of control; (dose: 0.5 mg/kg/injection, schedule: Q04DX003 (ip), vehicle: water) 116 % of control and 124 % of control. The T/C reads like this: (dose: 0.54 mg/kg/injection, schedule: Q04DX003 (ip), vehicle: saline) 161 % of control; (dose: 0.6 mg/kg/injection, schedule: Q04DX003 (ip), vehicle: saline) 154 % of control and 168 % of control; (dose: 0.6 mg/kg/injection, schedule: Q04DX003 (ip), vehicle: water) 170 % of control; (dose: 0.6 mg/kg/injection, schedule: Q04DX003 (oral), vehicle: saline) 112 % of control; (dose: 0.64 mg/kg/injection, schedule: Q04DX003 (ip), vehicle: water) 109 % of control and 115 % of control and 274 % of control; (dose: 0.65 mg/kg/injection, schedule: Q01DX001 (ip), vehicle: saline) 172 % of control. Further, the T/C is 172 % of control (dose: 0.65 mg/kg/injection, schedule: Q04DX003 (ip), vehicle: saline); 161 % of control and 180 % of control (dose: 0.72 mg/kg/injection, schedule: Q01DX001 (ip), vehicle: saline); 167 % of control (dose: 0.72 mg/kg/injection, schedule: Q04DX003 (ip), vehicle: saline); 160 % of control and 186 % of control (dose: 0.9 mg/kg/injection, schedule: Q04DX003 (ip), vehicle: saline); 92 % of control and 94 % of control (dose: 1.0 mg/kg/injection, schedule: Q04DX003 (ip), vehicle: saline); 102 % of control (dose: 1.0 mg/kg/injection, schedule: Q04DX003 (ip), vehicle: water). Further, the T/C is 110 % of control (dose: 1.0 mg/kg/injection, schedule: Q04DX003 (oral), vehicle: saline); 95 % of control (dose: 1.08 mg/kg/injection, schedule: Q01DX001 (ip), vehicle: saline); 100 % of control (dose: 1.08 mg/kg/injection, schedule: Q04DX003 (ip), vehicle: saline); 105 % of control (dose: 1.2 mg/kg/injection, schedule: Q01DX001 (ip), vehicle: saline); 110 % of control (dose: 1.2 mg/kg/injection, schedule: Q01DX001 (oral), vehicle: saline); 110 % of control (dose: 1.2 mg/kg/injection, schedule: Q04DX003 (ip), vehicle: saline). For the same compound, the T/C runs as follows: (dose: 1.5 mg/kg/injection, schedule: Q04DX003 (ip), vehicle: saline) 108 % of control; (dose: 1.67 mg/kg/injection, schedule: Q04DX003 (oral), vehicle: saline) 115 % of control; (dose: 2.0 mg/kg/injection, schedule: Q01DX001 (oral), vehicle: saline) 102 % of control; (dose: 2.0 mg/kg/injection, schedule: Q04DX003 (ip), vehicle: water) 116 % of control; (dose: 2.78 mg/kg/injection, schedule: Q04DX003 (oral), vehicle: saline) 106 % of control and 110 % of control; (dose: 3.2 mg/kg/injection, schedule: Q04DX003 (ip), vehicle: saline) 105 % of control. Also, the T/C is 111 % of control and 116 % of control (dose: 3.33 mg/kg/injection, schedule: Q01DX001 (oral), vehicle: saline); 113 % of control (dose: 4.63 mg/kg/injection, schedule: Q04DX003 (oral), vehicle: saline); 114 % of control (dose: 5.56 mg/kg/injection, schedule: Q01DX001 (oral), vehicle: saline); 99 % of control (dose: 6.4 mg/kg/injection, schedule: Q04DX003 (ip), vehicle: saline); 166 % of control (dose: 7.72 mg/kg/injection, schedule: Q04DX003 (oral), vehicle: saline); 152 % of control (dose: 9.26 mg/kg/injection, schedule: Q01DX001 (oral), vehicle: saline). The T/C was 164 % of control (dose: 12.9 mg/kg/injection, schedule: Q04DX003 (oral), vehicle: saline); 120 % of control (dose: 6.25 micrograms/kg/injection, schedule: Q04DX003 (ip), vehicle: saline); 111 % of control (dose: 15.0 micrograms/kg/injection, schedule: Q04DX003 (ip), vehicle: saline); 116 % of control (dose: 25.0 micrograms/kg/injection, schedule: Q04DX003 (ip), vehicle: saline); 111 % of control (dose: 31.0 micrograms/kg/injection, schedule: Q04DX003 (ip), vehicle: saline); 111 % of control (dose: 50.0 micrograms/kg/injection, schedule: Q04DX003 (ip), vehicle: saline). Also, the T/C was 107 % of control (dose: 62.0 micrograms/kg/injection, schedule: Q04DX003 (ip), vehicle: saline); 107 % of control (dose: 125.0 micrograms/kg/injection, schedule: Q04DX003 (ip), vehicle: saline); 119 % of control (dose: 200.0 micrograms/kg/injection, schedule: Q04DX003 (ip), vehicle: saline); 156 % of control (dose: 500.0 micrograms/kg/injection, schedule: Q04DX003 (ip), vehicle: saline); 122 % of control (dose: 800.0 micrograms/kg/injection, schedule: Q04DX003 (ip), vehicle: saline); 166 % of control (dose: 1000.0 micrograms/kg/injection, schedule: Q04DX003 (ip), vehicle: saline). Also, the T/C is 88 % of control (dose: 2000.0 micrograms/kg/injection, schedule: Q04DX003 (ip), vehicle: saline); 103 % of control (dose: 3200.0 micrograms/kg/injection, schedule: Q04DX003 (ip), vehicle: saline); 116 % of control (dose: 6400.0 micrograms/kg/injection, schedule: Q04DX003 (ip), vehicle: saline).
As for `NS(=O)(=O)/C=C(\Cl)c1ccccc1`, the T/C is 102 % of control (dose: 25.0 mg/kg/injection, schedule: Q01DX009 (ip), vehicle: saline with Tween-80); 94 % of control (dose: 50.0 mg/kg/injection, schedule: Q01DX009 (ip), vehicle: saline with Tween-80); 94 % of control (dose: 100.0 mg/kg/injection, schedule: Q01DX009 (ip), vehicle: saline with Tween-80).
Consider `Cc1nc2c(cc1C#N)C(Nc1ccc(Cl)cc1)Oc1ccc([N+](=O)[O-])cc1-2` (centres undefined), for which the T/C runs as follows: (dose: 60.0 mg/kg/injection, schedule: Q01DX005 (ip), vehicle: saline with Tween-80) 92 % of control; (dose: 120.0 mg/kg/injection, schedule: Q01DX005 (ip), vehicle: saline with Tween-80) 92 % of control; (dose: 240.0 mg/kg/injection, schedule: Q01DX005 (ip), vehicle: saline with Tween-80) 90 % of control.
`COc1ccc(OC)c2c(C)c(C)c(Cl)nc12`: the T/C was 92 % of control (dose: 100.0 mg/kg/injection, schedule: Q01DX001 (ip), vehicle: Klucel (hydroxypropylcellulose) (HPC)); 107 % of control (dose: 200.0 mg/kg/injection, schedule: Q01DX001 (ip), vehicle: Klucel (hydroxypropylcellulose) (HPC)); 95 % of control (dose: 400.0 mg/kg/injection, schedule: Q01DX001 (ip), vehicle: Klucel (hydroxypropylcellulose) (HPC)).
On to `Cc1nc(Cl)c2cnccn12`, for which the T/C runs as follows: (dose: 25.0 mg/kg/injection, schedule: Q04DX003 (ip), vehicle: saline) 100 % of control; (dose: 50.0 mg/kg/injection, schedule: Q04DX003 (ip), vehicle: saline) 100 % of control.
